Assay results as given in ChEMBL document CHEMBL2331263, “Non-benzimidazole containing inhibitors of respiratory syncytial virus” (Bioorg Med Chem Lett, 2013).
pIC50: −log10 of the molar value.

Columns and labels:
[1] = Octanol-neutral buffer partition co-efficient, log D of the compound at pH 7.4
[2] = Apparent permeability in dog RRCK cells; conditions: MDCK
[3] = Apparent intrinsic clearance in human liver microsomes
[4] = test system: Respiratory syncytial virus; test: Antiviral activity against Respiratory syncytial virus A2 infected in A549 cells after 3 days by CelltitreGlo assay; assay type: functional, organism-based; conditions: human respiratory syncytial virus, A2, A549, 72 h
[5] = Apparent permeability in MDCK cells selected for low expression of efflux transporters; conditions: dog
[6] = Apparent intrinsic clearance in rat liver microsomes; assay type: ADME, Microsome; conditions: read-out: CLH(app)
[7] = Intrinsic clearance in rat plasma
Hepatocyte = test: Apparent intrinsic clearance in human hepatocytes assessed per million cells
Liver microsomes = test: Apparent intrinsic clearance in rat liver microsomes assessed per mg protein
[8] = Oral absorption in rat; assay type: ADME, organism-based; conditions: in vivo
[9] = Drug excretion in rat urine; assay type: ADME; conditions: read-out: Drug excretion
[10] = Half life in iv dosed rat; conditions: in vivo
[11] = Volume of distribution in steady state in rat; conditions: in vivo
[12] = Oral bioavailability in rat; conditions: in vivo

logD [1] | microsomal CLint [3] [µL/min/mg] | pIC50 [4] | Papp [5] [nm/s] | SMILES | further results
0.2 | 9 | 5.22 |  | COCc1cn(CCCCO)c(Cn2c(=O)n(C3CC3)c3ccncc32)n1 | Papp [2]: 10 nm/s
1.8 | 65 | 8.40 |  | O=c1n(Cc2nc3c(n2CCCCO)CCCC3)c2cnccc2n1C1CC1 | Papp [2]: 40 nm/s
2 | < 8 | 6.96 |  | O=c1n(Cc2nc(Cl)c(Cl)n2CCCCO)c2cnccc2n1C1CC1 | 
0.8 | 9 | 4.91 |  | COC(=O)c1nc(Cn2c(=O)n(C3CC3)c3ccncc32)n(CCCCO)c1C | Papp [2]: 20 nm/s
4.4 |  | 6.66 |  | CC(C)n1nc(Cn2nc3ccccc3c2CCCCO)c2ccccc21 | 
3.5 | 246 | 6.00 | 160 | CC(C)n1nc(Cn2nc3ccccc3c2OCCCO)c2ccccc21 | 
3.9 |  | 7.19 |  | CC(C)n1nc(Cn2nc3ccccc3c2OCCCCO)c2ccccc21 | 
3.8 | 78 | 6.56 | 140 | CC(C)n1nc(Cn2nc3ccccc3c2CCCO)c2ccccc21 | 
2.9 | 462 | 6.77 | 320 | CC(C)n1nc(Cn2c(=O)c3ccccc3n2CCCCO)c2ccccc21 | 
3.6 | > 320 | 6.39 | 120 | CC(C)n1nc(Cn2nc3c(c2CCCCO)CCCC3)c2ccccc21 | 
2.4 |  | 5.53 |  | CC(C)n1nc(Cn2nc3ccccc3c2C(=O)NCCCO)c2ccccc21 | 
4.4 | 242 | 4.64 | 80 | CC(C)n1nc(CCn2nc(CCCCO)c3ccccc32)c2cnccc21 | 
1.4 | 17 | 6.86 | 40 | Cc1cc(CCn2cc(-c3cccnc3)nc2Cn2c(=O)n(C3CC3)c3ccncc32)no1 | 
1.5 | 32 | 7.02 | 20 | Cc1ccc(CCn2cc(-c3cccnc3)nc2Cn2c(=O)n(C3CC3)c3ccncc32)cn1 | 
1.4 |  | 7.39 | 30 | Cc1cc(CCn2cc(-c3cccnc3)nc2Cn2c(=O)n(C3CC3)c3ccncc32)on1 | 
0.9 | 10 | 5.65 |  | Cc1ncc(CCn2cc(-c3cccnc3)nc2Cn2c(=O)n(C3CC3)c3ccncc32)o1 | 
1.2 | < 8 | 6.58 | 40 | O=c1n(Cc2nc(-c3cccnc3)cn2CCCCO)c2cnccc2n1C1CC1 | microsomal CLint [6]: 44 µL/min/mg; CLint scaled [7]: 5.7 L/h/kg; CLH(app) (Hepatocyte): < 2.2 µL/min
0.9 | < 8 | < 4.70 |  | Cn1nccc1-c1cn(CCCCO)c(Cn2c(=O)n(C3CC3)c3ccncc32)n1 | 
0.6 | < 8 | 6.63 | 10 | O=c1n(Cc2nc(-c3ncccn3)cn2CCCCO)c2cnccc2n1C1CC1 | CLH(app) (Hepatocyte): < 2.2 µL/min
1.4 | < 8 | 6.63 | 50 | O=c1n(Cc2nc(-c3ccccn3)cn2CCCCO)c2cnccc2n1C1CC1 | CLH(app) (Hepatocyte): < 2.2 µL/min
0.8 | < 8 | 4.98 |  | Cn1ccnc1-c1cn(CCCCO)c(Cn2c(=O)n(C3CC3)c3ccncc32)n1 | 
1.3 | < 8 | 7.24 | 40 | O=c1n(Cc2nc(-c3nccs3)cn2CCCCO)c2cnccc2n1C1CC1 | CLH(app) (Liver microsomes): 21.1 µL/min; Fa [8]: > 60%; dose excreted [9]: 16%; Papp [2]: 40 nm/s; half-life [10]: 1.5 h; Vd [11]: 3.5 L/kg; bioavailability [12]: 34%; CLint scaled [7]: 2.88 L/h/kg; CLH(app) (Hepatocyte): < 2.2 µL/min
0.6 | < 8 | 7.02 |  | O=c1n(Cc2nc(-c3ncco3)cn2CCCCO)c2cnccc2n1C1CC1 | 
0.9 | < 8 | 5.29 |  | Cc1nnc(-c2cn(CCCCO)c(Cn3c(=O)n(C4CC4)c4ccncc43)n2)s1 | 
3.4 | 44 | 9.30 |  | COC(=O)N1CCC(n2c(=O)n(Cc3nc4ccccc4n3CCCCO)c3ccccc32)CC1 | Papp [2]: 360 nm/s
-0.5 | 15 | 7.26 |  | COC(=O)N1CCC(n2c(=O)n(Cc3nc(C)c(C)n3CCCCO)c3cnccc32)CC1 | Papp [2]: 10 nm/s
2 | 110 | < 4.85 |  | COC(=O)N1CCC(n2ccc(Cc3nc4ccccc4n3CCCCO)n2)CC1 | Papp [2]: 60 nm/s
1.5 | 11 | < 4.70 |  | CC(=O)N1CCC(Cn2nc3ccccc3c2CCCCO)CC1 | Papp [2]: 20 nm/s
 |  | 7.89 |  | O=c1n(Cc2nc3ccccc3n2CCCCO)c2cnccc2n1C1CC1 | 
